Test results as given in paper PMC10584496, “Brazilin from Caesalpinia sappan L. as a Proprotein Convertase Subtilisin/Kexin Type 9 (PCSK9) Inhibitor: Pharmacophore-Based Virtual Screening, In Silico Molecular Docking, and In Vitro Studies” (Advances in Pharmacological and Pharmaceutical Sciences, 2023).

Target: T1, Proprotein convertase subtilisin/kexin type 9 (PCSK9) (Homo sapiens, UniProt Q8NBP7)
T1 construct: His-tagged recombinant PCSK9 wild type
Assay: CircuLex PCSK9-LDLR in vitro binding assay kit (plate-based, ELISA-type)

T1 sequence (Q8NBP7 31-152): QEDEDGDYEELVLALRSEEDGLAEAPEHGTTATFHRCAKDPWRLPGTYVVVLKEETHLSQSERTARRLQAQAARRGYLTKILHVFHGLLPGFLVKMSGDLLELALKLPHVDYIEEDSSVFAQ
T1 sequence (Q8NBP7 153-692): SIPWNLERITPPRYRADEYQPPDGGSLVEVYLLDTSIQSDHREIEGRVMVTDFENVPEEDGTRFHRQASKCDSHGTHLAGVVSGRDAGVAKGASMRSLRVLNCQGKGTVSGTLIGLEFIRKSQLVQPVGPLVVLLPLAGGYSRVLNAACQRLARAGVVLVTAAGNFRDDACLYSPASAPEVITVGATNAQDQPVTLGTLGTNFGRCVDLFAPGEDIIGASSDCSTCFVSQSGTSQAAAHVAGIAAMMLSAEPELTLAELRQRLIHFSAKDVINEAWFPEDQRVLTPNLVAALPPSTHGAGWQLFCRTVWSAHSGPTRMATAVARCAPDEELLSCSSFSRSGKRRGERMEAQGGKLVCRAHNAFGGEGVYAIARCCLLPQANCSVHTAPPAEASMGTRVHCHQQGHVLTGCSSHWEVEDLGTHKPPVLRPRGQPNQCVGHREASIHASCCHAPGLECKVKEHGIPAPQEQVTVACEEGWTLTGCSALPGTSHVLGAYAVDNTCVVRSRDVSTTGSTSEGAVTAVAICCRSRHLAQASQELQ
T1 sequence (P01130 22-860 partner): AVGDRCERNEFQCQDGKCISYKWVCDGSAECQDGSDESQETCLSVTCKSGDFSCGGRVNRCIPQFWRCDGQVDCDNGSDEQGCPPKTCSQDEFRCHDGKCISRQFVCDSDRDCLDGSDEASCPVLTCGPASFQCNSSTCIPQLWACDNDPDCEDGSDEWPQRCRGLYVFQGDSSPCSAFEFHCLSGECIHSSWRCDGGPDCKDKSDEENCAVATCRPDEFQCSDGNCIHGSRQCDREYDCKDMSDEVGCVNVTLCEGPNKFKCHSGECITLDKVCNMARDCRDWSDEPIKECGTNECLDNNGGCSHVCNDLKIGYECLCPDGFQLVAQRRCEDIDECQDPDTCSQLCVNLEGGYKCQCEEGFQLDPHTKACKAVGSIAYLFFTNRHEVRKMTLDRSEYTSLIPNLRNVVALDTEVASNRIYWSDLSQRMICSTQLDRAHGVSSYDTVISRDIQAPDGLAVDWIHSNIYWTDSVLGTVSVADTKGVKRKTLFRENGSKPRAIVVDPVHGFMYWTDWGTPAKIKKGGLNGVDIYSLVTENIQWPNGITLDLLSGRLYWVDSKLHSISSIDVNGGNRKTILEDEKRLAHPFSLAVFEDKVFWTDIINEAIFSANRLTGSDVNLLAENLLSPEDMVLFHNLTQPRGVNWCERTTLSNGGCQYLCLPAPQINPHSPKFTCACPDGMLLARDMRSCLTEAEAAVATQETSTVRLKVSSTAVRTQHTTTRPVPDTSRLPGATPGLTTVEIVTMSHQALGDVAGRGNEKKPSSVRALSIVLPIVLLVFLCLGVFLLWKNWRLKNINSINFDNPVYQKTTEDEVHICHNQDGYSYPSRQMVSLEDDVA

- IC50: 2.19 µM
Compound: Oc1ccc2c(c1)OC[C@]1(O)Cc3cc(O)c(O)cc3[C@H]21 [brazilin]
